Measurements as given in patent US20230096028A1, “BICYCLIC HETEROCYCLYL COMPOUNDS AND USES THEREOF” (Revolution Medicines, Inc., priority 2019, published 2023).
Where two headings read alike, the source gives them in different places.

Experiments:
[1] = target: T1, SOS1 catalytic domain (residues 564-1049) (Homo sapiens, UniProt Q07889); experiment: Potency Assay: binding affinity to SOS1 using Surface Plasmon Resonance (SPR); set-up: SOS1 catalytic domain (residues 564-1049) immobilized on a sensor chip; conditions: immobilized SOS1 catalytic domain (residues 564-1049), read-out: SOS1 SPR Equilibrium Kd
T1 sequence (Q07889 564-1049): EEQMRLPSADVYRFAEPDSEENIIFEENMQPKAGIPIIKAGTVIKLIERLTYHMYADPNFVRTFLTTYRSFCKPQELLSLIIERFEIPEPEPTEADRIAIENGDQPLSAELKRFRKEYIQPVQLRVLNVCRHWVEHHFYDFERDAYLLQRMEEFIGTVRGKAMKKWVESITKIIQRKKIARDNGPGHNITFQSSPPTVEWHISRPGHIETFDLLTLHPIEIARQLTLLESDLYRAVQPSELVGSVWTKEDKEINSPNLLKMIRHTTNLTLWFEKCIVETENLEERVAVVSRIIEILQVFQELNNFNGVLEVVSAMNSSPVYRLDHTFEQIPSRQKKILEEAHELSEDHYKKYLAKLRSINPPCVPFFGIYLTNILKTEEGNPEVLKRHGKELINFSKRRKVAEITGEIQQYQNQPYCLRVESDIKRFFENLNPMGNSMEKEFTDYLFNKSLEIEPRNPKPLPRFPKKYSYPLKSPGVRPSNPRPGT
In short: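 Avi-tagged SOS1 catalytic domain captured on streptavidin chip (~6000 RU) in 0.01 M HEPES, 0.15 M NaCl, 0.05% P20. Compound dilution series flowed at 50 μL/min for association, then buffer for dissociation, with double reference subtraction. Kd derived from end-of-association binding response plotted against concentration.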

[2] = target: T1, SOS1 catalytic domain (residues 564-1049); experiment: Mode of Action Assay: inhibition of SOS1 nucleotide exchange activity (SOS1 TR-FRET IC50 Assay)
[3] = test system: PC-9 cells (EGFR Ex19Del); experiment: Potency Assay: pERK (SOS1 pERK IC50 Assay, AlphaLISA SureFire Ultra p-ERK1/2); type: cell-based; conditions: Homo sapiens, read-out: SOS1 pERK IC50
In short: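 PC-9 (EGFR Ex19Del) cells plated overnight, then treated 1 h at 37° C. with 10-point 3-fold dilutions (top 10 μM final) in duplicate. Lysate pERK1/2 measured by AlphaLISA SureFire Ultra; IC50 from 4-parameter sigmoidal fit.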

[4] = PC-9 cells (EGFR Ex19Del), 1 hour incubation, AlphaLISA p-ERK1/2

| Compound | Kd [1] [nM] | IC50 [2] [nM] | IC50 [3, 4] [nM] | IC50 ([3]; PC-9, 1 h) [nM] |
| --- | --- | --- | --- | --- |
| C[C@@H](Nc1nc(Cl)nc2c1CN(C(=O)N1CCN(C)C(C(F)(F)F)C1)C2)c1cccc(C(F)F)c1F (stereo partly drawn) [Example 418] | < 400 | < 1000 | < 1000 | – |
| C[C@@H](Nc1nc(Cl)nc2c1CN(C(=O)N1CCOCC1)C2)c1cccc(C(F)F)c1F [Example 537] | < 400 | < 1000 | < 1000 | – |
| C[C@@H](Nc1nc(Cl)nc2c1CN(S(=O)(=O)C1CC1)C2)c1cc(N)cc(C(F)(F)F)c1 [Example 52] | < 400 | < 1000 | < 1000 | – |
| C[C@@H](Nc1nc(Cl)nc2c1CN(C(=O)N1CCOc3cccnc31)C2)c1cc(N)cc(C(F)(F)F)c1 [Example 160] | < 400 | < 1000 | < 1000 | – |
| C[C@@H](Nc1nc(Cl)nc2c1CN(C(=O)C1(C)CCN(C3COC3)CC1)C2)c1cccc(C(F)F)c1F [Example 327] | < 400 | < 1000 | < 1000 | – |
| C[C@@H](Nc1nc(Cl)nc2c1CN(C(=O)N1CCNCC13COC3)C2)c1cccc(C(F)F)c1F [Example 405] | < 400 | < 1000 | > 1000 | – |
| C[C@@H](Nc1nc(Cl)nc2c1CN(S(=O)(=O)N1CCOCC1)CC2)c1cccc(C(F)(F)F)c1 [Example 185] | > 400 | < 1000 | > 1000 | – |
| COc1nccc(C(=O)N2Cc3nc(Cl)nc(N[C@H](C)c4cc(N)cc(C(F)(F)F)c4)c3C2)n1 [Example 72] | > 400 | < 1000 | < 1000 | – |
| O=C(N1CCOCC1)N1Cc2nc(Cl)nc(NC(CF)c3cccc(C(F)(F)CO)c3)c2C1 (stereo not drawn) [Example 463, (2-chloro-4-((1-(3-(1,1-difluoro-2-hydroxyethyl)phenyl)-2-fluoroethyl)amino)-5,7-dihydro-6H-pyrrolo[3,4-d]pyrimidin-6-yl)(morpholino)methanone] | < 400 | < 1000 | > 1000 | – |
| C[C@@H](Nc1nc(Cl)nc2c1CN(C(=O)N1CCC(O)CC1)C2)c1cccc(C(F)F)c1F [Example 395] | < 400 | < 1000 | < 1000 | – |
| C[C@@H](Nc1nc(Cl)nc2c1CN(C(=O)N1CCNc3ccncc31)C2)c1cccc(C(F)(F)F)c1 [Example 375] | < 400 | < 1000 | < 1000 | – |
| COC1CN([C@H]2CCc3ncnc(N[C@H](C)c4cccc(C(F)F)c4F)c3C2)C1 [Example 444] | < 400 | < 1000 | > 1000 | – |
| C[C@@H](Nc1nc(Cl)nc2c1CN(C(=O)C1(F)CN(C)C1)C2)c1cccc(C(F)F)c1F [Example 408] | < 400 | < 1000 | < 1000 | – |
| C[C@@H](Nc1nc(Cl)nc2c1CN(C(=O)C1COCCN1)C2)c1cccc(C(F)(F)F)c1 (stereo partly drawn) [Example 276] | > 400 | < 1000 | > 1000 | – |
| C[C@@H](Nc1nc(Cl)nc2c1CN(C(=O)N1CCOc3ncccc31)C2)c1cccc(C(F)(F)F)c1 [Example 366] | < 400 | < 1000 | < 1000 | – |
| C[C@@H](Nc1nc(Cl)nc2c1CN(C(=O)N1CCNCC1)C2)c1cccc(C(F)F)c1F [Example 407] | < 400 | < 1000 | < 1000 | – |
| C[C@@H](Nc1nc(Cl)nc2c1CC(N1CC3(COC3)C1)CC2)c1cc(N)cc(C(F)(F)F)c1 (stereo partly drawn) [Example 433] | < 400 | < 1000 | < 1000 | – |

| Compound | Kd [1] [nM] | IC50 [2] [nM] | IC50 [3, 4] [nM] | IC50 ([3]; PC-9, 1 h) [nM] |
| --- | --- | --- | --- | --- |
| C[C@@H](Nc1nc(Cl)nc2c1C[C@@H](N1CCOCC1)CC2)c1cc(N)cc(C(F)(F)F)c1 (single isomer, unassigned) [Example 170] | < 400 | < 1000 | < 1000 | – |
| C[C@@H](Nc1nc(Cl)nc2c1CN(C(=O)[C@@]13COC[C@@H]1CN(S(C)(=O)=O)C3)CC2)c1cc(N)cc(C(F)(F)F)c1 [Example 222] | > 400 | > 1000 | > 1000 | – |
| COC1(C(=O)N2Cc3nc(Cl)nc(N[C@H](C)c4cccc5c4OCC5(F)F)c3C2)CCOCC1 [Example 490] | < 400 | < 1000 | < 1000 | – |
| C[C@@H](Nc1nc(Cl)nc2c1CN(S(=O)(=O)C1CCOCC1)CC2)c1cc(N)cc(C(F)(F)F)c1 [Example 455] | < 400 | < 1000 | < 1000 | – |
| C[C@@H](Nc1nc(Cl)nc2c1CN(C(=O)C13CN(C1)S(=O)(=O)C3)C2)c1cccc(C(F)F)c1F [Example 297] | < 400 | < 1000 | < 1000 | – |
| C[C@@H](Nc1nc(Cl)nc2c1CN(C(=O)C1COCCN(C)C1)C2)c1cccc(C(F)F)c1F (stereo partly drawn) [Example 320] | < 400 | < 1000 | < 1000 | – |
| CNCc1ccccc1-c1cnc(C(C)Nc2nc(Cl)nc3c2CN(C(=O)N2CCOCC2)C3)s1 (stereo not drawn) [Example 31] | < 400 | > 1000 | > 1000 | – |
| C[C@@H](Nc1nc(Cl)nc2c1CN(C(=O)N1CCOCC1)C2)c1cccc2c1COCC2(F)F [Example 523, 2-chloro-N-[(1R)-1-(4,4-difluoro-3,4-dihydro-1H-2-benzopyran-8-yl)ethyl]-6-(morpholine-4-carbonyl)-5H,6H,7H-pyrrolo[3,4-d]pyrimidin-4-amine] | < 400 | < 1000 | – | < 1000 |
| C[C@@H](Nc1nc(Cl)nc2c1CN(C(=O)N1CC3CCC1CN3C)C2)c1cccc(C(F)F)c1F (stereo partly drawn) [Example 415] | < 400 | < 1000 | < 1000 | – |
| C[C@@H](Nc1nc(Cl)nc2c1CN(C(=O)C1(N)COC1)C2)c1cccc(C(F)F)c1F [Example 285] | < 400 | < 1000 | < 1000 | – |
| C[C@@H](Nc1nc(Cl)nc2c1CN(C(=O)C1(N)CCOCC1)C2)c1cccc(C(F)F)c1F [Example 287] | < 400 | < 1000 | < 1000 | – |
| C[C@@H](Nc1nc(Cl)nc2c1CN(C(=O)N1CC3CCC1CN3)C2)c1cccc(C(F)F)c1F (stereo partly drawn) [Example 384] | < 400 | < 1000 | < 1000 | – |
| Cc1c([C@@H](C)Nc2nc(Cl)nc3c2CN(C(=O)N2CCOCC2)C3)cccc1C(F)(F)F [Example 477, 2-chloro-N-[(1R)-1-[2-methyl-3-(trifluoromethyl)phenyl]ethyl]-6-(morpholine-4-carbonyl)-5H,6H,7H-pyrrolo[3,4-d]pyrimidin-4-amine] | < 400 | < 1000 | < 1000 | – |
| CC(CC(=O)N1Cc2nc(Cl)nc(N[C@H](C)c3cccc(C(F)F)c3F)c2C1)N1CCNCC1 (stereo partly drawn) [Example 296] | < 400 | < 1000 | < 1000 | – |
| C[C@@H](Nc1nc(Cl)nc2c1CN(C(=O)c1ccnnc1)CC2)c1cc(N)cc(C(F)(F)F)c1 [Example 228] | < 400 | < 1000 | > 1000 | – |
| C[C@@H](Nc1nc(OC(F)(F)F)nc2c1CN(C(=O)N1CCOCC1)C2)c1cc(N)cc(C(F)(F)F)c1 [Example 126, N-[(1R)-1-[3-amino-5-(trifluoro-methyl)phenyl]ethyl]-6-(morpholine-4-carbonyl)-2-(trifluoro-methoxy)-5H,6H,7H-pyrrolo-[3,4-d]pyrimidin-4-amine] | > 400 | > 1000 | < 1000 | – |
